Measurements from patent US12728137B2, “Methods of treating cancer with a combination of mithramycin and immunotherapy” (University of South Florida, priority 2019, dated 2026).

Test system: CT26 cells
Assay: CT26 cell viability with TGFβI and/or Mit-A (CellTiter-Glo)
Assay type: cell-based, mouse
Conditions: LY2109761 (5 μM) and/or 150 nM Mit-A for 48 hrs; FIG. 9
Experimental: FIG. 9 depicts a bar graph of cell viability assayed by CellTiter-Glo of CT26 cells that were cultured in the presence of TGFβI, LY2109761 (5 μM) and/or 150 nM Mit-A for 48 hrs.
Mit-A potentiates the inhibitory effects of transforming growth factor β (TGFβ): TGFβ activated stroma is one of the defining features of MSS CRCs^33. […] However, inhibition of TGFβ in these tumors induced a potent anti-tumor response. Since Sp1 is implicated in TGFβ induced tumor invasion, whether inhibition of TGFβ signaling will promote sensitization of CT26 cells to Mit-A was examined.

With `c1ccc(-c2nn3c(c2-c2ccnc4cc(OCCN5CCOCC5)ccc24)CCC3)nc1` [LY2109761] the CT26 cell viability was “did not inhibit”.
